{"source": "patent US8097625B2", "about": "“Combination of sedative and a neurotransmitter modulator, and methods for improving sleep quality and treating depression” (priority 2003, dated 2012)", "tested_on": "subjects with insomnia related to major depressive disorder", "experiment": "DREAMDD clinical study: Hamilton Depression Rating Scale (HAMD17)", "format": "in vivo, human", "experimental": "The change from baseline to each double-blind, post-treatment visit in the HAM-D-17 score as well as the change from baseline to each double-blind, weekly, post-treatment assessments in the HAM-D-6 (Bech) scores and HAM-D-6 (Maier) scores was presented descriptively (n, mean, median, standard deviation, minimum, 25th percentile, median, 75th percentile, and maximum) by treatment. Treatment comparisons were performed at each assessed time point. The analysis compared the eszopiclone 3 mg group to placebo using an analysis of variance model (ANOVA) with treatment and site as fixed effects. The analysis was performed using the SAS MIXED procedure.\nHamilton Depression Rating Scale (HAM-D17): During this analysis, a medical professional evaluates the patient according to seventeen criteria by selecting the response that best characterizes the patient's behavior during the past week. The criteria and responses are based on that described in Br. J. Soc. Clin. Psychol. 6: 278-296 (1967) and are reproduced below. Question 1: Depressed mood (Sadness, hopeless, helpless, worthless); Response: 0—Absent, 1—These feeling states indicated only on questioning, 2—These feeling states spontaneously reported verbally, 3—Communicates feeling states non-verbally i.e., through facial expression, posture, voice, and tendency to weep, or 4—Patient report virtually only these feeling states in their spontaneous verbal and non-verbal communication. Question 2: Feeling of guilt; Response: 0—Absent, 1—Self reproach, feels they have let people down, 2—Ideas of guilt or rumination over past errors or sinful deeds, 3—Present illness is a punishment and/or has delusions of guilt, or 4—Hears accusatory or denunciatory voices and/or experiences threatening visual hallucinations. Question 3: Suicide; Response: 0—Absent, 1—Feels life is not worth living, 2—Wishes they were dead or any thoughts of possible death to self, 3—Suicide ideas or gesture, 4-Attempts at suicide (any serious attempt rates 4). Question 4: Insomnia early; Response: 0—No difficulty falling asleep; 1—Complains of occasional difficulty falling asleep—i.e., more than ½ hour; or 2—complains of nightly difficulty falling asleep. Question 5: Insomnia middle; Response: 0—No difficulty, 1—patient complains of being restless and disturbed during the night, or 2—Waking during the night—any getting out of bed rates 2 (except for purposes of voiding). Question 6: Insomnia Late; Response: 0—No difficulty, 1—Waking in early hours of the morning but goes back to sleep, or 2—Unable to fall asleep again if they get out of bed. […] Question 8: Retardation (Slowness of thought and speech; impaired ability to concentrate; decreased motor activity); Response: 0—Normal speech and thought, 1—Slight retardation at interview, 2—Obvious retardation at interview, 3—Interview difficult, or 4—Complete stupor. Question 9: Agitation; Response: 0—None; 1—Fidgetiness; 2—Playing with hands, hair, etc.; 3—Moving about, can't sit still; or 4—Hand wringing, nail biting, hair-pulling, biting of lips. Question 10: Anxiety psychic: 0—No difficulty, 1—Subjective tension and irritability, 2—Worrying about minor matters, 3—Apprehensive attitude apparent in face or speech, or 4—Fears expressed without questioning. Question 11: Anxiety somatic (Physiological concomitants of anxiety, such as:—Gastro-intestinal: dry mouth, wind, indigestion, diarrhea, cramps, belching.—Cardio-vascular: palpitations, headaches.—Respiratory: hyperventilation, sighing.—Urinary frequency—Sweating); Response: 0—Absent, 1—Mild, 2—Moderate, 3—Severe, or 4—Incapacitating. Question 12: Somatic symptoms gastro-intestinal; Response: 0—None, 1—Loss of appetite but eating without staff encouragement and/or heavy feelings in abdomen; or 2—Difficulty eating without staff urging and/or requests or requires laxatives or medication for bowels or medication for gastro-intestinal symptoms. […]"}
{"smiles": "CN1CCN(C(=O)OC2c3nccnc3C(=O)N2c2ccc(Cl)cn2)CC1", "note": "(single isomer, unassigned; (+)) [Eszopiclone, (+) 6-(5-chloro-2-pyridinyl)-6,7-dihydro-7-oxo-5H-pyrrolo[3,4b]pyrazin-5-yl 4-methylpiperazine-1-carboxylate]", "values": [{"measurement": "HAMD 17 differences in patients with more severe depression (baseline HAMD 17≧22)", "setting": "3 mg nightly + fluoxetine vs placebo", "result": "greater"}, {"measurement": "changes in HAMD17 scores", "setting": "Week 4, p=0.02 vs placebo, 3 mg nightly + fluoxetine 20 mg QAM", "result": "−9.9"}, {"measurement": "changes in HAMD17 scores", "setting": "Week 8, p<0.001 vs placebo, 3 mg nightly + fluoxetine", "result": "−13.8"}, {"measurement": "responders (50% decrease from baseline HAMD17)", "setting": "Week 8, p<0.009 vs placebo, 3 mg nightly + fluoxetine", "result": 74, "unit": "%"}, {"measurement": "remitters (HAMD17≦7)", "setting": "Week 8, p<0.02 vs placebo, 3 mg nightly + fluoxetine", "result": 54, "unit": "%"}, {"measurement": "HAMD17 with removal of insomnia items, versus placebo", "setting": "Week 8, p<0.03, 3 mg nightly + fluoxetine", "result": "significant differences"}, {"measurement": "augmentation effect versus agents currently used for augmentation therapy, such as lithium", "setting": "co-administration with fluoxetine", "result": "larger"}, {"measurement": "augmentation effect by severity of depression", "setting": "end of the 8 week treatment period", "result": "most pronounced in the most severely depressed patients"}]}
